Structures can show the parent of a compound that is named as a salt. Where two headings read alike, the source gives them in different places.
Assays:
human D1 receptor = biological target: T1, human D1 receptor (Homo sapiens, UniProt P21728); test: Radioligand binding to dopamine receptor D1 ([3H] SCH-23390, CHO membranes); details: for inhibition at 10 µM: read-out: Dopamine receptors, % inhibition D1
T1 construct: expressed in transfected cells; host or cells: CHO
Text: For this purpose sDNA of human D1 receptor is expressed in CHO cells, as it was described in [Dearry A, Gingrich JA, Falardeau P, Fremeau RT Jr, Bates MD and Caron MG. Molecular cloning and expression of the gene for a human D1 dopamine receptor. Nature. […] Nature.

adrenergic receptor α1B = biological target: T2, adrenergic receptor α1B (Rattus norvegicus, UniProt P15823); test: Radioligand binding to adrenergic receptor α1B ([3H] Prazosin, rat liver membranes)
T2 construct: membrane species from rat liver (rat of Wistar breed) are prepared; from tissue; host or cells: rat (Wistar) liver
T2 sequence (P15823 1-515): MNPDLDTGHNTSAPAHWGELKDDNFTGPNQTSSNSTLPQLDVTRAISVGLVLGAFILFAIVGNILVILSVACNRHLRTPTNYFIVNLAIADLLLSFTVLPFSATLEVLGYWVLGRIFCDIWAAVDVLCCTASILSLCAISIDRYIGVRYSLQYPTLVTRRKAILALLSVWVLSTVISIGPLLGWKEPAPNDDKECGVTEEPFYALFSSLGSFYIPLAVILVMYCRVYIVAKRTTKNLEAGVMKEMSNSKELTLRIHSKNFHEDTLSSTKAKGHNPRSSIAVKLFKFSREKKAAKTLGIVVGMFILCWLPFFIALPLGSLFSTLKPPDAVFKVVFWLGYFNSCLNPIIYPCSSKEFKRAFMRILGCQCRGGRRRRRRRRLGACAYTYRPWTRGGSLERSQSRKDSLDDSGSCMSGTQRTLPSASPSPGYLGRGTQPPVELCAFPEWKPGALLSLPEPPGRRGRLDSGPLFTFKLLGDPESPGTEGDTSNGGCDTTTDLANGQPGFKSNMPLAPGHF
Text: Species heterogeneity of hepatic α1A-, α1B-, and α1C-subtypes. Biochem Biophys Res Commun. […] Prazosin is used as positive control.

human D3 receptor = biological target: T3, human D3 receptor (Homo sapiens, UniProt P35462); test: Radioligand binding to dopamine receptor D3 ([3H] Spiperone, CHO membranes); details: for inhibition at 10 µM: read-out: Dopamine receptors, % inhibition D3
T3 construct: expressed in transfected cells; host or cells: CHO
Text: For this purpose sDNA of human D3 receptor is expressed in CHO cells, as it was described in [Sokoloff P, Giros B, Martres M-P, Bouthenet M-L and Schwartz J-C. Molecular cloning and characterization of novel dopamine receptor (D3) as target for neuroleptics. Nature. […] Molecular cloning and characterization of novel dopamine receptor (D3) as target for neuroleptics. Nature. […] Spiperone is used as positive control.

imidazoline receptor I2 = test: Radioligand binding to imidazoline receptor I2 ([3H] Idazoxan, rat brain membranes)
human D4.2 receptor = biological target: T4, human D4.2 receptor (Homo sapiens, UniProt P21917, DEL265-296); test: Radioligand binding to dopamine receptor D4.2 ([3H] Spiperone, CHO-K1 membranes); details: read-out: Dopamine receptors, % inhibition D4.2
T4 construct: expressed in transfected cells; host or cells: CHO-K1
T4 sequence (P21917 with tags, fused parts or gaps DEL265-296): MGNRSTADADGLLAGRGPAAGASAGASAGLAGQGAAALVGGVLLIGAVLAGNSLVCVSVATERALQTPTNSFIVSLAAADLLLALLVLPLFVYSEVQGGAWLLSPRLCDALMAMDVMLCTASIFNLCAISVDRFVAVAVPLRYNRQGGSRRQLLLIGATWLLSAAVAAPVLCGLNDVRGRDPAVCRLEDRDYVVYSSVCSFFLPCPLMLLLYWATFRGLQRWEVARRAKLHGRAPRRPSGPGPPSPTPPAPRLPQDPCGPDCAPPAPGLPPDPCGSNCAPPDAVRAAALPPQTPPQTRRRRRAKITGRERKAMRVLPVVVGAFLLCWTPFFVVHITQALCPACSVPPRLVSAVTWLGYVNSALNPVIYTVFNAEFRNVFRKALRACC
Description: Screening of the disclosed compounds for potential ability to interact with dopamine receptor D4.2 is carried out by method of radioligand binding. […] From the cells transfected in this way membrane species are prepared by homogenization of these cells in glass homogenizer with the subsequent separation of plasmatic membranes from cell nuclei, mitochondrias and cell wreckages by differential centrifugation. […] After incubation samples are filtered in vacuo on glass-microfiber filters G/F (Millipor, USA), filters are washed three times with cold solution of medium and radioactivity is measured by scintillation counter MicroBeta 340 (Perkin Elmer, USA). Nonspecific binding which makes up 10% of the overall binding is determined by incubation of membrane species with radioligand in the presence of 10 µM of Haloperidol.
Spiperone is used as positive control. Tested compounds' binding to the receptor is determined by their ability to displace radioligand and expressed in percent of displacement (%I). Values of %I are calculated according to the following equation: %I = (TA-CA)/(TA-NA)*100, [formula] wherein: TA - is overall radioactivity in the presence of radioligand only, CA - is radioactivity in the presence of radioligand and tested compound and NA - is radioactivity in the presence of radioligand and Haloperidol (10 µM).

[1] = biological target: T5, recombinant human 5-HT2A receptor (Homo sapiens, UniProt P28223); test: Radioligand binding to serotonin receptor 5-HT2A ([3H] Ketanserin, CHO-K1 membranes); details: for inhibition at 10 µM: 10 µM ligand
T5 construct: expressed in transfected cells; host or cells: CHO-K1
Text: 9-C. […] J Neurochem. […] Ketanserin is used as positive control.

[2] = biological target: T6, serotonin receptor 5-HT1B (Rattus norvegicus, UniProt P28564); test: Radioligand binding to serotonin receptor 5-HT1B ([125I] cyanopindolol, rat brain cortex membranes); details: read-out: 5-HT1B % inhibition
T6 construct: membrane species are prepared from rat brains (Wistar) by homogenization of species of rat brain-cortices; from tissue; host or cells: rat (Wistar) brain cortex
Text: Serotonin is used as positive control.

human 5-HT7 receptor = biological target: T7, human 5-HT7 receptor (Homo sapiens, UniProt P34969); test: Radioligand binding to serotonin receptor 5-HT7 ([3H] Lysergic acid diethylamide, CHO membranes); details: read-out: 5-HT7 % inhibition
T7 construct: expressed in transfected cells; host or cells: CHO
Text: For this purpose sDNA of human 5-HT7 receptor is expressed in CHO cells as it was described in [Shen Y, Monsma FJ Jr, Metcalf MA, Jose PA, Hamblin MW, and Sibley DR. […] J. Biol. Chem. 1993, 268, 18200 - 18204]. […] J. Pharmacol. Exp. Ther. 1994, 268:1403-1410]. […] Methiothepin is used as positive control.

[3] = biological target: T8, recombinant human 5-HT2C receptor (Homo sapiens, UniProt P28335); test: Radioligand binding to serotonin receptor 5-HT2C ([3H] Mesulergine, CHO-K1 membranes); details: for nH: 5-HT2C
T8 construct: expressed in transfected cells; host or cells: CHO-K1
T8 sequence (P28335 33-458): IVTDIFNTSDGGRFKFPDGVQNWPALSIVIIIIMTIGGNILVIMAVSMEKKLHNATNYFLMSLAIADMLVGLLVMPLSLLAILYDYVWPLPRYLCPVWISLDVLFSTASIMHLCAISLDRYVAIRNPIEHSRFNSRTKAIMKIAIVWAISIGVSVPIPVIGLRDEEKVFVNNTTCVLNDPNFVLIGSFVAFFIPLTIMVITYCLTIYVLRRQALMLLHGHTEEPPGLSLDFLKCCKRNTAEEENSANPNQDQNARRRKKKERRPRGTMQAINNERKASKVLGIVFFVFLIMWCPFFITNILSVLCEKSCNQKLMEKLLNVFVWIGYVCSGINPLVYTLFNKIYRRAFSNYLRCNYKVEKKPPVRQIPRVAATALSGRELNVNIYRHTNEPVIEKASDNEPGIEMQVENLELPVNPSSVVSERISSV
Text: J Neurochem. 69: 1449 - 1458, 1997]. […] SB242084 is used as positive control.

human H1 receptor = biological target: T9, human H1 receptor (Homo sapiens, UniProt P35367); test: Radioligand binding to histamine receptor H1 ([3H] Pyrilamine, CHO-K1 membranes); details: for inhibition at 10 µM: read-out: Histamine receptors, % inhibition H1, 10 µM ligand
T9 construct: expressed in transfected cells; host or cells: CHO-K1
Text: Biochem Biophys Res Comm. 197(3): 1601-1608, 1993]. […] Biochem Biophys Res Comm. 197(3): 1601-1608, 1993].
Pyrilamine is used as positive control.

[4] = read-out: α-Adrenoceptor, % inhibition α1B

T6 sequence (P28564 whole entry): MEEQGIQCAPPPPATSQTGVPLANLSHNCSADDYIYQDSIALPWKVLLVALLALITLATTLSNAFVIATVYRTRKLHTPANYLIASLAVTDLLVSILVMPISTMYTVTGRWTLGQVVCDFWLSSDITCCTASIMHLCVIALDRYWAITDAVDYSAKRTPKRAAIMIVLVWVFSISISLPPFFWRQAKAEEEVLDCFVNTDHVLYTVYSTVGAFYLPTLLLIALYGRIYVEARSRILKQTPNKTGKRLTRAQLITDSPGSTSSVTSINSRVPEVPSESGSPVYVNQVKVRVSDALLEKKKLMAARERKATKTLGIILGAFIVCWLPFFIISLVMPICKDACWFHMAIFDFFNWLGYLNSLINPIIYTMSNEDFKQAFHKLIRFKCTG
T7 sequence (P34969 whole entry): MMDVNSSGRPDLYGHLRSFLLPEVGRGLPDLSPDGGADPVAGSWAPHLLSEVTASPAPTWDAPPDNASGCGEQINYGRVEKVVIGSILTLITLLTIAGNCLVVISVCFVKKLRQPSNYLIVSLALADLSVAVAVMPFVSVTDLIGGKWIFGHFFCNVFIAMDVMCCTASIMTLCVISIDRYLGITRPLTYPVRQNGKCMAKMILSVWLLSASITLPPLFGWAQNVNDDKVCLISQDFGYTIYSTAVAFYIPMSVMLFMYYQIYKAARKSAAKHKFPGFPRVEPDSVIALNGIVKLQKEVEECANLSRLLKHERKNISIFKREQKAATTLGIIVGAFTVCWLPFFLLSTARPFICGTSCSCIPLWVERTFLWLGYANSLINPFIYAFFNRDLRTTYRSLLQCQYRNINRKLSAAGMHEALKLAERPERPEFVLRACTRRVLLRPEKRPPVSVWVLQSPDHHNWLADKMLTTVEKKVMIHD
T9 sequence (P35367 whole entry): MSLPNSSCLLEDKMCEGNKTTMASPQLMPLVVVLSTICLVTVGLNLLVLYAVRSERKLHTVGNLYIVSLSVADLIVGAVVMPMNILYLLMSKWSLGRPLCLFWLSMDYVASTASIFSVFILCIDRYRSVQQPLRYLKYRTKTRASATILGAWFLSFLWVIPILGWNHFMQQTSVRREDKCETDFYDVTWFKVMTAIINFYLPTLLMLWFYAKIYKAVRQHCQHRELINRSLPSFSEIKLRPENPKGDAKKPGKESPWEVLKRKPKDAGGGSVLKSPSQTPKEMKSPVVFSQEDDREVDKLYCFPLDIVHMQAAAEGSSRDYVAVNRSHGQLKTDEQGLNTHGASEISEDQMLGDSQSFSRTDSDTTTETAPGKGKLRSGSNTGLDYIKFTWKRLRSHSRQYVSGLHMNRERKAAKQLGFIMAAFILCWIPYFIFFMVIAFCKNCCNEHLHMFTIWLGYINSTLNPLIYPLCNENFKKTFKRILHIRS
T1 sequence (P21728 whole entry): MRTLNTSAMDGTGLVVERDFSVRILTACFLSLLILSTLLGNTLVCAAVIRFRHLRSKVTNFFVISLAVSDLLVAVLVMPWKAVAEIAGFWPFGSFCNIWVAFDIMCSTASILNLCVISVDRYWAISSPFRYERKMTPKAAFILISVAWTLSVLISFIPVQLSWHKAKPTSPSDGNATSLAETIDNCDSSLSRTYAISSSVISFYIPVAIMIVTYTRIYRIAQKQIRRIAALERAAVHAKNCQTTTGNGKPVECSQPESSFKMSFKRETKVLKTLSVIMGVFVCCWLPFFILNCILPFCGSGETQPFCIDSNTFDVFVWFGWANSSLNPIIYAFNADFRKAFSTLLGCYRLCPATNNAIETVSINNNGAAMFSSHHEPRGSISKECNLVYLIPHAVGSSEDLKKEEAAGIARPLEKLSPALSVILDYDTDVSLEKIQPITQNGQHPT
T5 sequence (P28223 whole entry): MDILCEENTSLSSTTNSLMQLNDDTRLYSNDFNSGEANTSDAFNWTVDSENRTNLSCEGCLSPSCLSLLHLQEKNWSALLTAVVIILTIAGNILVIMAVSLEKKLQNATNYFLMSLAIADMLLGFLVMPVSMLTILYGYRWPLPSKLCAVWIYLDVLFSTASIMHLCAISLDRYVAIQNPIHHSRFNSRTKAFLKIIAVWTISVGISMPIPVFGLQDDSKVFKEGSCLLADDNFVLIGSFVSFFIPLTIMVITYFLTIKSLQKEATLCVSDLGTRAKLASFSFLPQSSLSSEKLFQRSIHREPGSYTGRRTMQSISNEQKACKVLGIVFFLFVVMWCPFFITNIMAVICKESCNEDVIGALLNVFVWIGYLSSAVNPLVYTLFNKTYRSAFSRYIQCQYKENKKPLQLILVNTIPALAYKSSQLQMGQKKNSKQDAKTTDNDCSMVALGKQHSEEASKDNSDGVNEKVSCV
T3 sequence (P35462 whole entry): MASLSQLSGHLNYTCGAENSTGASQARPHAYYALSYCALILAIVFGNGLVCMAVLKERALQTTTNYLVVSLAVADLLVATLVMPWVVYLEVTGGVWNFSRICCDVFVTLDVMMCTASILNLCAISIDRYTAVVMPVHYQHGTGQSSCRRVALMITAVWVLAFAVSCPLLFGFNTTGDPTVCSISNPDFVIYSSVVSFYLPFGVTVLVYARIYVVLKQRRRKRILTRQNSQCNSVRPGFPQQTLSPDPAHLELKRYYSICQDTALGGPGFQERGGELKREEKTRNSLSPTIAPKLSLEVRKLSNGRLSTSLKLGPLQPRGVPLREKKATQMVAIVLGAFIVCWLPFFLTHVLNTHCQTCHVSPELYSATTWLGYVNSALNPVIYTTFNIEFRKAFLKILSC

Structure (SMILES) | inhibition at 10 µM (human D1 receptor) [%] | inhibition at 10 µM (adrenergic receptor α1B; [4]) [%] | inhibition at 10 µM (human D3 receptor) [%] | % inhibition (imidazoline receptor I2; 10 µM ligand) [%] | inhibition at 10 µM [1] [%] | inhibition at 10 µM [2] [%] | inhibition at 10 µM (human 5-HT7 receptor) [%] | inhibition at 10 µM ([3]; read-out: 5-HT2C % inhibition) [%] | inhibition at 10 µM (human H1 receptor) [%] | nH [3] | IC50 (imidazoline receptor I2) [µM] | Ki (imidazoline receptor I2) [µM] | other results
Cc1ccc2c(c1)[C@@H]1CN(C)CCC[C@@H]1N2CCc1ccc(C)nc1 (relative stereo) [1.6.1(2)·3HCl] | 55 | 93 | 41 | 80 | -4 | -6 | 8 | 4 | 102 | – | – | – | inhibition at 10 µM (human D4.2 receptor): -11%
CN1CCc2c(c3ccccc3n2Cc2ccccc2)C1.Cl [1.9(1)·HCl, 5-benzyl-2-methyl-2,3,4,5-tetrahydro-1H-pyrido[4,3-b]indole hydrochloride] | – | 70 | – | – | 96 | 13 | 91 | 97 | 97 | 1.21 | – | – | % inhibition (imidazoline receptor I2; 3 µM ligand): 75 (3 µM) %; IC50 (imidazoline receptor I2; hydrochloride): 0.994 µM; Ki (imidazoline receptor I2; hydrochloride): 0.662 µM; inhibition at 0.1 µM ([1]; 0.1µM ligand): 68%; nH ([1]; 5-HT2A): 0.765; inhibition at 0.3 µM (human 5-HT7 receptor): 76%; inhibition at 0.1 µM ([3]; read-out: 5-HT2C % inhibition): 79%
Cc1ccc2c(c1)c1c(n2CCc2ccccc2)CCN(C)C1 [1.1.2(1-2)·HCl, 2,8-dimethyl-5-phenethyl-1,2,3,4-tetrahydro-1H-pyrido[4,3-b]indole hydrochloride] | – | 101 | – | 93 | – | 82 | – | – | – | – | 0.268 | 0.179 | –
CN1CCc2c(c3ccccc3n2Cc2ccccc2)C1 [1.9(1)·1/2NDSA, bis-(5-benzyl-2-methyl-2,3,4,5-tetrahydro-1H-pyrido[4,3-b]indole) naphthalene-1,5-disulfonate] | 77 | – | 65 | – | – | – | – | – | – | 0.987 | 0.169 | 0.11 | IC50 (human D1 receptor; Receptor D1): 3.66 µM; Ki (human D1 receptor; Receptor D1): 1.83 µM; nH (human D1 receptor; Receptor D1): 1.38; nH (adrenergic receptor α1B; Receptor α1B): 0,956; inhibition at 3 µM (adrenergic receptor α1B; [4]): 62%; nH (human D3 receptor; Receptor D3): 1.04; % inhibition (imidazoline receptor I2; 0.3 µM ligand): 87(0.3 µM) %; inhibition at 0.3 µM [2]: 4%; Histamine receptors, % inhibition H1 (human H1 receptor; 10 µM ligand): 105%; nH (human H1 receptor; histamine H1 receptors): 0.789
